Data reported in patent US12281304B2, “Compositions and methods for treating and preventing muscular disorders and dystrophies, steroid side effects, and inflammation” (Children's National Medical Center, priority 2018, dated 2025).

Tested on: miRNAs in diaphragm muscle of mdx mice
Experiment: TaqMan low-density array (TLDA) miRNA profiling of diaphragm, discovery set (prophylactic mdx trial)
Assay type: in vivo, mouse
Excerpt: Archival muscle samples (diaphragm) from two separate preclinical studies were obtained, with each trial showing a significant benefit from both prednisolone and vamorolone drug treatments (23). Prednisolone was used because it is the active form of prednisone, the current DMD standard of care. The first, “discovery set” of diaphragm muscles was from a prophylactic trial design where 2-week old (postnatal day 15) mdx or wild type control mice received oral dosing for 6 weeks with vehicle (cherry syrup), prednisolone (5 mg/kg), or vamorolone (15 mg/kg) as previously reported (23). The second, “validation set” of diaphragm muscles was from an extended trial in older mice where mdx or wild type mice were subjected to treadmill running to unmask mild phenotypes. Mice in this validation set were treated with either vehicle, prednisolone (5 mg/kg) or vamorolone (45 mg/kg) for four months beginning at two months of age (23). At the endpoint of each trial, diaphragm muscles were harvested and frozen in liquid nitrogen-cooled isopentane.
We extracted total RNA from 5 diaphragm muscles per treatment group in the discovery set of samples from 8-week old mice. RNA was extracted using a modified TRIzol protocol with isopropanol precipitation at −20° C. overnight. This RNA was reverse transcribed to cDNA using a High Capacity cDNA Reverse Transcription Kit with RNase Inhibitor (ThermoFisher; Carlsbad, Calif.), with miRNA-specific Megaplex RT Primers, Rodent Pools Set version 3.0 (ThermoFisher; Carlsbad, Calif.). Levels of each of the miRNAs were profiled in the discovery set using TAQMAN Array Rodent MiRNA A+B Cards Set v3.0 (ThermoFisher; Carlsbad, Calif.).
In the discovery set experiments, levels of each miRNA were quantified in TaqMan low-density arrays using ThermoFisher Cloud software with the Relative Quantification Application (ThermoFisher; Carlsbad, Calif.) tool. Data was analyzed by ANOVA with post-hoc comparison of each group to the mdx vehicle-treated group. […] A P-value of P≤0.05 was set as the significance threshold, without adjustment for multiple comparisons. To reduce false-positive discovery in this setting, an evidence-based approach was used to identify efficacy associated miRNAs where 1) results from the multiple groups were cross-referenced, and 2) all candidate miRNAs identified in this discovery set were then assayed in a separate validation set of mice. For the validation set experiments, levels of each individual miRNA were assayed in samples from a second, independent preclinical trial in adult mdx mice. Data from individual TaqMan Assays was quantified using QuantStudio Real-Time PCR version 1.3 software (Applied Biosystems; Foster City, Calif.). The levels of all miRNAs were normalized to the geometric mean of multiple control genes (60, 70). Comparison of groups was made by ANOVA with Holm-Sidak post-hoc test comparing each group to mdx vehicle.
To visualize behavior of miRNAs within individual mice for each group, heat map images were generated. Heat maps were generated using Rq values of TLDA array data exported from the Relative Quantification Application of the ThermoFisher Cloud software (ThermoFisher; Carlsbad, Calif.) tool. Heat maps of miRNA expression were produced using Hierarchical Clustering Explorer Version 3.5 (at www.cs.umd.edu/hcil/multi-cluster/) produced by the Human Computer Interaction Laboratory (University of Maryland; College Park, Md.).
To examine miRNA expression TaqMan low density qPCR array cards were used to profile approximately 750 miRNAs within diaphragm muscle from a discovery set of mice. Samples for this experiment came from a trial that utilized a prophylactic approach (23). Briefly, mdx mice undergo a stage of peak severity characterized by widespread inflammation and necrosis from approximately 3-8 weeks of age, followed by a recovery stage where mice show milder phenotypes (25). […]

[1] = discovery set diaphragm muscle, mdx mice, Pred 5 mg/kg, Vam 15 mg/kg
[2] = mdx diaphragm, vs untreated mdx, Pred 5 mg/kg, Vam 15 mg/kg

C[C@]12C=CC(=O)C=C1CC[C@@H]1[C@@H]2[C@@H](O)C[C@@]2(C)[C@H]1CC[C@]2(O)C(=O)CO [prednisolone]
miRNA 142-3p % expression in comparison to mdx vehicle [1]: 50 ± 13 % | miRNA 142-5p % expression in comparison to mdx vehicle [1]: 44 ± 11 % | miRNA 146a % expression in comparison to mdx vehicle [1]: 39 ± 6 % | miRNA 301a % expression in comparison to mdx vehicle [1]: 70 ± 18 % | miRNA 324-3p % expression in comparison to mdx vehicle [1]: 71 ± 14 % | miRNA 455-3p % expression in comparison to mdx vehicle [1]: 62 ± 18 % | miRNA 455-5p % expression in comparison to mdx vehicle [1]: 64 ± 30 % | miRNA 497 % expression in comparison to mdx vehicle [1]: 49 ± 11 % | miRNA 652 % expression in comparison to mdx vehicle [1]: 62 ± 14 % | number of miRNAs significantly changed in dystrophic muscle (mdx diaphragm, 8-week-old mice, oral dosing 6 weeks, prednisolone 5 mg/kg, vamorolone 15 mg/kg, versus untreated mdx, P≤0.05): 76 | expression of 14q32 (mouse 12F1) cluster miRNAs miR-134, miR-370, miR-409, miR-433, miR-493, miR-543 (mdx diaphragm, discovery set, prednisolone 5 mg/kg): specifically activated | number of miRNAs significantly increased by treatment (mdx diaphragm, discovery set, prednisolone 5 mg/kg, vamorolone 15 mg/kg, P≤0.05): 9 | expression of the nine efficacy-associated miRNAs elevated in dystrophy (mdx diaphragm, discovery set, versus mdx vehicle): returned towards healthy wild type levels | Rq hsa-let-7i#-002172 [2]: 0.714 | Rq hsa-miR-30e-3p-000422 [2]: 0.739 | Rq hsa-miR-22#-002301 [2]: 0.641 | Rq hsa-miR-140-3p-002234 [2]: 0.681 | Rq hsa-miR-143-000466 [2]: 1.096 | Rq hsa-miR-154#-000478 [2]: 1.585 | Rq hsa-miR-190b-002263 [2]: 0.547 | Rq hsa-miR-200c-000505 [2]: 0.486 | Rq hsa-miR-206-000510 [2]: 1.017 | Rq hsa-miR-213-000516 [2]: 0.622 | Rq hsa-miR-214#-002293 [2]: 0.82 | Rq hsa-miR-214-000517 [2]: 0.767 | Rq hsa-miR-376a#-001287 [2]: 0.978 | Rq hsa-miR-455-001280 [2]: 0.6 | Rq hsa-miR-744#-002325 [2]: 0.537 | Rq mmu-let-7e-002406 [2]: 0.66 | Rq mmu-let-7a-000377 [2]: 0.491 | Rq mmu-let-7b-000378 [2]: 0.655 | Rq mmu-let-7c-1#-002479 [2]: 1.427 | Rq mmu-let-7c-000379 [2]: 0.651 | Rq mmu-let-7i-002221 [2]: 0.775 | Rq mmu-let-7d#-001178 [2]: 0.556 | Rq mmu-let-7d-002283 [2]: 0.714 | Rq mmu-miR-1-002222 [2]: 0.868 | Rq mmu-miR-15a-000389 [2]: 0.635 | Rq mmu-miR-16-000391 [2]: 0.663 | Rq mmu-miR-18a-002422 [2]: 1.284 | Rq mmu-miR-19a-000395 [2]: 0.846 | Rq mmu-miR-20a#-002491 [2]: 0.771 | Rq mmu-miR-21#-002493 [2]: 0.707 | Rq mmu-miR-21-000397 [2]: 0.659 | Rq mmu-miR-23b-000400 [2]: 0.621 | Rq mmu-miR-25-000403 [2]: 0.75 | Rq mmu-miR-26a-000405 [2]: 0.7 | Rq mmu-miR-27b-000409 [2]: 0.796 | Rq mmu-miR-28-000411 [2]: 0.759 | Rq mmu-miR-30e-002223 [2]: 0.785 | Rq mmu-miR-30a-000417 [2]: 0.756 | Rq mmu-miR-30b-000602 [2]: 0.785 | Rq mmu-miR-30c-000419 [2]: 0.739 | Rq mmu-miR-31#-002495 [2]: 0.955 | Rq mmu-miR-31-000185 [2]: 1.028 | Rq mmu-miR-34a-000426 [2]: 0.712 | Rq mmu-miR-34b-3p-002618 [2]: 0.607 | Rq mmu-miR-34c#-002584 [2]: 0.623 | Rq mmu-miR-34c-000428 [2]: 0.655 | Rq mmu-miR-99b-000436 [2]: 0.783 | Rq mmu-miR-100-000437 [2]: 0.586 | Rq mmu-miR-103-000439 [2]: 0.679 | Rq mmu-miR-122-002245 [2]: 0.241 | Rq mmu-miR-125a-3p-002199 [2]: 0.666 | Rq mmu-miR-125b#-002508 [2]: 0.453 | Rq mmu-miR-125b-3p-002378 [2]: 0.561 | Rq mmu-miR-125b-5p-000449 [2]: 0.676 | Rq mmu-miR-126-3p-002228 [2]: 0.697 | Rq mmu-miR-126-5p-000451 [2]: 0.682 | Rq mmu-miR-127-000452 [2]: 1.382 | Rq mmu-miR-128a-002216 [2]: 0.871 | Rq mmu-miR-130a-000454 [2]: 0.758 | Rq mmu-miR-130b#-002460 [2]: 0.443 | Rq mmu-miR-130b-000456 [2]: 0.757 | Rq mmu-miR-133a-002246 [2]: 0.942 | Rq mmu-miR-134-001186 [2]: 1.922 | Rq mmu-miR-136-002511 [2]: 0.705 | Rq mmu-miR-138#-002554 [2]: 0.214 | Rq mmu-miR-140-001187 [2]: 0.775 | Rq mmu-miR-142-3p-000464 [2]: 0.485 | Rq mmu-miR-142-5p-002248 [2]: 0.438 | Rq mmu-miR-143-002249 [2]: 0.742 | Rq mmu-miR-145-002278 [2]: 0.694 | Rq mmu-miR-146a-000468 [2]: 0.397 | Rq mmu-miR-146b#-002453 [2]: 0.088 | Rq mmu-miR-146b-001097 [2]: 0.555 | Rq mmu-miR-148a-000470 [2]: 0.602 | Rq mmu-miR-148b-000471 [2]: 0.512 | Rq mmu-miR-150#-002570 [2]: 0.297 | Rq mmu-miR-150-000473 [2]: 0.516 | Rq mmu-miR-151-3p-001190 [2]: 0.877 | Rq mmu-miR-152-000475 [2]: 0.721 | Rq mmu-miR-154-000477 [2]: 0.606 | Rq mmu-miR-155-002571 [2]: 0.742 | Rq mmu-miR-181a-000480 [2]: 0.728 | Rq mmu-miR-181c-000482 [2]: 0.624 | Rq mmu-miR-185-002271 [2]: 0.818 | Rq mmu-miR-186-002285 [2]: 0.866 | Rq mmu-miR-191-002299 [2]: 0.771 | Rq mmu-miR-193#-002577 [2]: 0.799 | Rq mmu-miR-195-000494 [2]: 0.491 | Rq mmu-miR-199a-3p-002304 [2]: 0.844 | Rq mmu-miR-199b-001131 [2]: 0.771 | Rq mmu-miR-200c-002300 [2]: 0.508 | Rq mmu-miR-203-000507 [2]: 0.575 | Rq mmu-miR-204-000508 [2]: 0.722 | Rq mmu-miR-210-000512 [2]: 0.759
